Results as given in patent US20090264470A1 (priority 2006, published 2009).

Assays:
[1] = Body weight of diet-induced obese male C57BL/6J mice, repeated oral dosing for 28 days; format: in vivo, mouse; conditions: Dunnett's test p<0.001; doses as in Table 2
Method: Sibutramine, which is currently used clinically, and rimonabant, which has recently received regulatory approval for the management of obesity were used as reference compounds.
Sixty-five C57BL/6J mice (7-8 weeks of age) were ordered from Charles River, Margate, Kent. Mice were group housed in polypropylene cages with free access to a high fat diet (D12451 45% of Kcal derived from fat; Research Diets, New Jersey, USA) and tap water at all times. Animals were maintained at 21±4° C. and 55±20% humidity on a normal phase 12 h light-dark cycle (lights on 04:30 h)
Animals were exposed to the high fat diet for 16 weeks. During this time body weight was recorded weekly. […] Body weight and food and water intake was recorded daily. […]
Body weight and food and water intake were recorded daily. Following drug administration the animals were examined and any overt behaviour was recorded. […]
The test compounds were dissolved in 1% methylcellulose. […] Drug doses were expressed as free base.
Resulting body weights, food intake and water intake were expressed as mean values±SEM, and the SEMs are calculated from residuals of the statistical model. Body weight data was analysed by ANCOVA with Day 1 as covariate followed by appropriate comparisons (two-tailed) to determine significant differences from the control group. […] Daily food and water intake data was analysed by ANOVA.

[2] = Acute administration: wet mash and food intake and 24 h body weight in lean male C57BL/6J mice; format: in vivo, mouse; conditions: dosed orally at 10 mg/kg
Method: The goal of this study was to investigate the effects of various ratios of bupropion:(R)-norfluoxetine on body weight and food and water intake in male C57BL/6J mice habituated to the daily presentation of a palatable wet mash diet. […] Animals were maintained on normal-phase lighting. Test compounds were administered orally and measurements were made over the following 24 hours. All experiments included appropriate vehicle-treated control groups.
Sixty-two male C57BL/6J mice (weight range 20-25 g) were ordered from Harlan UK, Bicester, UK. The mice were individually housed in polypropylene cages at a temperature of 21±4° C. and 55%±20% humidity. Animals were maintained on a normal phase light-dark cycle (lights off for 12 h from 19:00-07:00 h) during which time the room was illuminated by red light. […] In addition, animals were habituated to a daily presentation of a wet mash diet (1 part powdered chow:1.5 parts tap water) placed on a dish on the cage floor. Animals were maintained under these conditions for at least ten days before experimentation commenced.
Typically an acute study was run each week with each study containing 60 animals. On the day prior to testing, the experimental animals were randomly allocated to suitable treatment groups. Animals were weighed and 2 h wet mash intake was calculated (to the nearest 0.1 g). […]
Drug administration occurred 60 minutes before the presentation of ‘wet mash’ which was at approximately 09:30 am. […] The mash was replaced with a fresh quantity of wet mash at the 4 hour time point. […] Wet mash was replaced with a known quantity of standard pellets at the 6 hour time point. […] Food and water intakes of the different groups of animals were measured concurrently. The animals were monitored at each reading and any overt drug-induced behavioural effects were recorded. […]
Results (body weights (g) at 0, 24 h; change in body weight (g) over 24; food and water intake at 1, 2, 4, 6 and 24 h and between 1-2 h, 2-4 h, 4-6 h) were expressed as mean values±SEM. […]

[3] = target: T1, Human Cannabinoid 1 (CB1) (Homo sapiens, UniProt P21554); experiment: Ca2+i response to 2-AG (dose-response with or without compound), CB1 GqΔGi/CHO cells, DSIS flow cytometry; format: cell-based; conditions: 2-AG with or without compound (FIG. 2)
T1 construct: expressed in transfected cells; host or cells: CHO cells stably expressing the GqΔGi chimera
T1 sequence (P21554 whole entry): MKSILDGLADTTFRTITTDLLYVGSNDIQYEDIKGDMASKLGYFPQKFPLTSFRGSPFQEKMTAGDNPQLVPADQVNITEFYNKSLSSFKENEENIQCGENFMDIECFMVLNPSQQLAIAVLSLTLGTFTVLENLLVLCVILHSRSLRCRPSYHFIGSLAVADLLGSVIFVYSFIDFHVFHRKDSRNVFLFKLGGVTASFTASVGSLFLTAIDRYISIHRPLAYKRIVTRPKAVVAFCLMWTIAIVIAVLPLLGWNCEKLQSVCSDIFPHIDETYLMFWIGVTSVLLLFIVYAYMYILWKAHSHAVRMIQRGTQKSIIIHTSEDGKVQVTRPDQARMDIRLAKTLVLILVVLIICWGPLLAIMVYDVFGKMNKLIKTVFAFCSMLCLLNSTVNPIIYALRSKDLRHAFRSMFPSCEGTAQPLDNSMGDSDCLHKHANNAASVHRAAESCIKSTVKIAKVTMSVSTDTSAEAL
Source text: cDNA for the G protein GqΔGi chimera was generated by PCR and inserted into the polylinker region of the pcDNA3/hygro+vector (Invitrogen). Stable expression of GqΔGi chimera protein in CHO cell line was generated under hygromycin selection. Human Cannabinoid 1 (CB1) cDNA was inserted into the polylinker region of the pcDNA3.1/(+) vector (Invitrogen) and DNA was introduced into the GqΔGi/CHO cell line by Lipofectamine reagent (Invitrogen). Cell lines stably expressing the CB receptor with Gq ΔGi chimera protein were generated by double selection with hygromycin and G418 (Coward, P., et al. 1999. Chimeric G proteins allow a high-throughput signaling assay of Gi-coupled receptors. Anal Biochem. 270:242-8).
CB1 Cells were plated 24-48 hours in advance, and were harvested with trypsin at ˜80% confluency. […]
The probe-loaded CB1 and Control cell mixture was placed in the Cell Suspension System on the DSIS where they were continuously rocked to keep them in a suspended state. […] The DSIS software, NVS Sampler, recorded a timing file and the CyAn software, Summit, recorded a data file. These two files were then compiled and analyzed by our proprietary software, NVS Analyzer, to determine the percent of cells that responded to each concentration. The data was transferred to GraphPAD Prism for a non-linear regression curve fit that determined the EC50. […]

[4] = target: T2, CB2 receptor (Homo sapiens, UniProt P34972); experiment: Ca2+i response to 2-AG (dose-response with or without compound), CB2 receptor bearing cells; format: cell-based; conditions: CB2 receptor bearing cells (FIG. 2)
T2 construct: host or cells: CB2 receptor bearing cells
T2 sequence (P34972 whole entry): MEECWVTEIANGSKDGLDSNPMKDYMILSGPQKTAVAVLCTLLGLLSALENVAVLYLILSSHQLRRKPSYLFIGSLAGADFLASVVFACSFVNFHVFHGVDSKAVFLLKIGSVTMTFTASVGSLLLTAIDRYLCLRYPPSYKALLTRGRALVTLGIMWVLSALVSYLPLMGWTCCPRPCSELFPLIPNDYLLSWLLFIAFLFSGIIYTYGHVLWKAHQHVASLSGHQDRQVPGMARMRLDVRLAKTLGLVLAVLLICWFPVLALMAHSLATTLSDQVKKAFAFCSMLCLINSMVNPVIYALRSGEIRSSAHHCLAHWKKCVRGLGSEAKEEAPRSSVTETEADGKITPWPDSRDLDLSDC

[5] = target: T3, human CB1 receptors (Homo sapiens, UniProt P21554); experiment: [35S]GTPγS binding assay, CHO-k1 cell membranes; format: biochemical
T3 construct: expressed in transfected cells; host or cells: CHO-k1 cells (membranes)
T3 sequence (P21554 whole entry): as the sequence (P21554 whole entry) above
Method: [^35S]GTPγS binding assays were performed with CHO-k1 cell membranes stably expressing human CB1 receptors in 96-well ScintiPlate (PerkinElmer). The membranes (12.5 μg/well) were preincubated with compound 7 in the binding buffer (50 mM Tris-HCl, pH 7.4, 100 mM NaCl, 3 mM MgCl2, 0.2 mM EDTA, 0.2% BSA and 10 μM GDP) at 30° C. for 30 min, then added various concentrations of agonists (WIN 55212-2 or CP 55,940) and [^35S]GTPγS (0.2 nM) in a final volume of 200 μl. Reactions were carried out at 30° C. for 60 min, followed by centrifugation of plate at […] for 15 min. After removing supernatant, the radioactivity was quantitated on a TopCounter.

[6] = target: T3, human CB1 receptors; experiment: Competition ligand binding assay, CHO-k1 cell membranes; conditions: human CB1 cell membranes (FIG. 6)
Method: (§1) Competition ligand binding assays were performed with the non-selective cannabinoid receptor agonist ([^3H]CP 55,940) (0.75 nM) in the binding buffer containing 50 mM Tris-HCl, pH 7.4, 3 mM MgCl2, 1 mM EDTA, 0.2% BSA using CHO-k1 cell membranes stably expressing human CB1 receptors or mouse brain membrane preparations in 96-well plate format. The receptor membranes (10 μg/well) were pre-incubated with different concentrations of tested compounds in the binding buffer at room temperature for 30 min prior to addition of 0.75 nM [^3H]CP 55,940 in a final volume of 100 μl. The binding was carried out at room temperature for another 2 h. To determine the non-specific binding, experiments were also performed in the presence of 10 μM unlabeled CP 55,940. Binding was terminated by addition of cold binding buffer and filtrated on Whatman GF/B glass-fiber filters using a sampling manifold. The filters were washed 6 times with cold binding buffer and air-dried overnight. The radioactivity was quantitated on a TopCounter (PerkinElmer) after adding scintillation fluid. Specific binding was defined as the difference between the binding in the presence and absence of 10 μM unlabeled CP 55, 940.

[7] = target: T4, mouse CB1 (mouse brain membrane) (Mus musculus, UniProt P47746); experiment: Competition ligand binding assay, mouse brain membrane preparations; conditions: mouse brain membranes (FIG. 6)
T4 construct: human CB1 receptors or mouse brain membrane preparations in 96-well plate format; from tissue; host or cells: mouse brain membrane preparations
T4 sequence (P47746 whole entry): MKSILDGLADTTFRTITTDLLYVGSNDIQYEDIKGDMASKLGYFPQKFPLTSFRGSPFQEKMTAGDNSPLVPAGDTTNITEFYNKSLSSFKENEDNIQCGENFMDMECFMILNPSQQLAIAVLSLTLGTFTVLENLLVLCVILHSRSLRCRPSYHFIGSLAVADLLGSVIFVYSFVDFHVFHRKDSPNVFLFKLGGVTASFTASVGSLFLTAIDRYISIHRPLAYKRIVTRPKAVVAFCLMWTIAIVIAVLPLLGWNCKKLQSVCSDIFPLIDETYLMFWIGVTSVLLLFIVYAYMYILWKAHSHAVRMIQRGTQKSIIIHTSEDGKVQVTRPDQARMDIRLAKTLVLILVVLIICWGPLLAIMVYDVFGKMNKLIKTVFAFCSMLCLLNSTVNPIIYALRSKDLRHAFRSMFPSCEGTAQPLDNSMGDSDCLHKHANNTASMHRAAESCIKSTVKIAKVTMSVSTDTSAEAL
Method: as §1

Cc1c(C(=O)NN2CCCCC2)nn(-c2ccc(Cl)cc2Cl)c1-c1ccc(Cl)cc1 [Rimonabant]
weight reduction as compared to vehicle on day 29 [1]: statistically significant weight reduction
24 hour body weight change versus vehicle ([2]; one-way ANOVA (FIG. 10)): No significant differences versus vehicle
daily food intake versus vehicle ([2]; one-way ANOVA (FIG. 15)): No significant differences versus vehicle
body weight versus vehicle ([2]; one-way ANOVA (FIG. 16)): No significant differences versus vehicle

Fc1ccc(C(OCCCc2c[nH]cn2)c2ccc(F)cc2)cc1 [compound 7]
effect on the 2-AG dose response (Ca2+i) [3]: right shift
effect on the 2-AG dose response (Ca2+i) [4]: No effect
pA2 estimation using CP 55940 as an agonist ([5]; CB1 cell line membranes (FIG. 4)): did not support an allosteric effect
antagonist versus inverse agonist activity in [35S]GTPγS binding ([5]; response dropped below basal levels (FIG. 5)): inverse agonist activity
inhibition of binding of [3H]CP 55,940 [6]: partially inhibited
inhibition of binding of [3H]CP 55,940 [7]: almost fully inhibited
